Assay results reported in PMC10746543, “Design principles for cyclin K molecular glue degraders” (Nature Chemical Biology, 2023).
Where “and” joins values, the source holds several entries; their conditions need not be identical. Equal entries are not always repeated. Where two headings read alike, the source gives them in different places. Values belong to the molecule of their own block, whether it stands above or below them.

Legend:
CDK12–cyclin K and DDB1 = biological target: T1, CDK12–cyclin K and DDB1 (Homo sapiens, UniProt Q16531+Q9NYV4, K965R); test: TR-FRET Kd determination, quadratic fit, 50 nM or 10 nM CDK12–cyclin K; format: binding
T1 construct: His6–CDK12 (a.a. 713–1,052); full-length or beta-propeller B domain deletion (ΔBPB: a.a. 396–705 deleted) constructs of His6–DDB1ΔBPB, StrepII–Avi–DDB1, or His6–Spy–DDB1; made in house; host or cells: Trichoplusia ni High Five insect cells (baculovirus)
T1 sequence (Q9NYV4 713-1052 K965R): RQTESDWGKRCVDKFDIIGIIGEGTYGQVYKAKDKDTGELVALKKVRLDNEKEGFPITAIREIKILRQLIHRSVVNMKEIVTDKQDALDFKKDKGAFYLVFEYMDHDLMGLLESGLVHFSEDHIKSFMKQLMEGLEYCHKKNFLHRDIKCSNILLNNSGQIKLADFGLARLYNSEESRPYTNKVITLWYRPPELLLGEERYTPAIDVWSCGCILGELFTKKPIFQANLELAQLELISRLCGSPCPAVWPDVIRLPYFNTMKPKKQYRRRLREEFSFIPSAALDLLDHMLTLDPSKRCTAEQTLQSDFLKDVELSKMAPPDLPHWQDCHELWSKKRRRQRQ
T1 sequence (O75909 1-267 partner): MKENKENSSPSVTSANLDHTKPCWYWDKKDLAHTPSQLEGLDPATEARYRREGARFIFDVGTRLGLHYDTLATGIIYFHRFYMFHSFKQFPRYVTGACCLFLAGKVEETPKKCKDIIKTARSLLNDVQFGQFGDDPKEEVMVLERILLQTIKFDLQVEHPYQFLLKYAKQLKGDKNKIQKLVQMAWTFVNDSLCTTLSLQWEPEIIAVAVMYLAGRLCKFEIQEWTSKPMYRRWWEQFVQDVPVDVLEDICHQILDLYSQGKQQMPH
T1 sequence (Q16531 whole entry): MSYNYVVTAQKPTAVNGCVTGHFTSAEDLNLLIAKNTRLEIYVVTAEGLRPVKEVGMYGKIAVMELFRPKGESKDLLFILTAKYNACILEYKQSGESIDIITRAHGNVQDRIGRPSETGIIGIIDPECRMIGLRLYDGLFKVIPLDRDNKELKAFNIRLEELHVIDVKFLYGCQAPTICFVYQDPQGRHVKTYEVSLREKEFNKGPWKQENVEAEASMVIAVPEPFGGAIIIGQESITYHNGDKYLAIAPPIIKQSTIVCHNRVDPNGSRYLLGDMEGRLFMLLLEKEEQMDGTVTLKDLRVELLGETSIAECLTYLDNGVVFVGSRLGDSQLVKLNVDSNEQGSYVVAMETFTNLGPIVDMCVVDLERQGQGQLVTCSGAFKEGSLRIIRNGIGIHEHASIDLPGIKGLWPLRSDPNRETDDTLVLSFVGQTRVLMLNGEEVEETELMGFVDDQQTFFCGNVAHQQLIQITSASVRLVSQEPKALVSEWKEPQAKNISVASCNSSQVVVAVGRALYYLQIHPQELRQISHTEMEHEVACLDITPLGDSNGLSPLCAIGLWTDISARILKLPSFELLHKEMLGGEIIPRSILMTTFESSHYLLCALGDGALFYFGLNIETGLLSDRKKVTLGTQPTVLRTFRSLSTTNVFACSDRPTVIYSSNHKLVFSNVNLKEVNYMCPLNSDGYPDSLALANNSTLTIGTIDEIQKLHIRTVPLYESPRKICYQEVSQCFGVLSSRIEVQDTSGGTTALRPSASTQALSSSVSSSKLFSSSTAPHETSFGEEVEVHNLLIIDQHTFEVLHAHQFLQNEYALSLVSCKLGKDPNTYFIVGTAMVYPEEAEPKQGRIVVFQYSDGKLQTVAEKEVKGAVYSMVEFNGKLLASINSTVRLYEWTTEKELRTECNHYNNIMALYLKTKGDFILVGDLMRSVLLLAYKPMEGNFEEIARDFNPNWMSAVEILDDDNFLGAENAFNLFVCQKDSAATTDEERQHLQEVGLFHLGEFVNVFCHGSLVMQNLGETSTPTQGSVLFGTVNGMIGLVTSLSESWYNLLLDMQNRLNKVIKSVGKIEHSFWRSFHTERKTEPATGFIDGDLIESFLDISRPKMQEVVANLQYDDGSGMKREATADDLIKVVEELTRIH
Description: Equation (2) is a quadratic binding equation used for Kd determination,where Top and Bottom refer to the curve plateaus. […]

CDK9–cyclin T = biological target: T2, CDK9–cyclin T (Homo sapiens, UniProt P50750); test: Lanthascreen kinase binding assay, CDK9; details: for Lanthascreen TR-FRET signal (raw ratio), sheet CDK9: duplicates
T2 construct: purchased Thermo Fisher
T2 sequence (P50750 whole entry): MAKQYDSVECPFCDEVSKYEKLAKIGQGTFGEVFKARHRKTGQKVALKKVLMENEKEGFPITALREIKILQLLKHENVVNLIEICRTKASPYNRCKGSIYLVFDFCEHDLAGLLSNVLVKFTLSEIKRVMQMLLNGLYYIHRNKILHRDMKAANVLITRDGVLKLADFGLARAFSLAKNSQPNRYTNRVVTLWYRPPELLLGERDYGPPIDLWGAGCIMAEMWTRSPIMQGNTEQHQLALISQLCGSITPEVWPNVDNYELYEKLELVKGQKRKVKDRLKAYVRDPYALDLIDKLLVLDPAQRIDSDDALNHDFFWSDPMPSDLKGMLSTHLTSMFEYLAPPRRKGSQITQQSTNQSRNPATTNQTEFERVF
T2 sequence (O60563 whole entry partner): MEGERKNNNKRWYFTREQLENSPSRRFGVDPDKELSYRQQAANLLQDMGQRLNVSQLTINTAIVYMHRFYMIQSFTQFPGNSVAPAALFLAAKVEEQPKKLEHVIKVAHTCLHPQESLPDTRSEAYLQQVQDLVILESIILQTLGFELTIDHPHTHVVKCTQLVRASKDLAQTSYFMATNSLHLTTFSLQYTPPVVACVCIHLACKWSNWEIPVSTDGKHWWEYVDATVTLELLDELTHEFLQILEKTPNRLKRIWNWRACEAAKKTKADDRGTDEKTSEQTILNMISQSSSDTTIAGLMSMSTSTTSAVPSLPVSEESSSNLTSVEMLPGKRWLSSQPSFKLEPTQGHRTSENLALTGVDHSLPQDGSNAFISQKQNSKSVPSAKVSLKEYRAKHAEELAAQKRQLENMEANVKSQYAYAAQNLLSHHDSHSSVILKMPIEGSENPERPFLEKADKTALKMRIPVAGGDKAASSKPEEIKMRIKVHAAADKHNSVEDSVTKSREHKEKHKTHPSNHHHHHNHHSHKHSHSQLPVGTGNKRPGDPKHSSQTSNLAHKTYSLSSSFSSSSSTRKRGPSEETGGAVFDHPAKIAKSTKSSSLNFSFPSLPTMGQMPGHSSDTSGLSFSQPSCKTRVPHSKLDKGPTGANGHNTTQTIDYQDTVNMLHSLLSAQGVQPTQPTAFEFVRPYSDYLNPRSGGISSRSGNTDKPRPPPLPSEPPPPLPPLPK
Protocol: Lanthascreen experiments were performed using commercially available reagents (Thermo Fisher) and according to the manufacturer’s instructions.

cyclin K = test: Label-free quantitative mass spectrometry in MDA-MB-231 cells, cyclin K; format: cell-based, human; details: for CCNK peptide count (DMSO-normalised): normalised to DMSO = 1, replicate values; for cyclin K depletion, result in words: MDA-MB-231 cells, 1 µM, 5 h
Protocol: (§1) MDA-MB-231 cells were treated with DMSO or a cyclin K degrader compound at 1 µM for 5 h. Cells were collected by centrifugation and washed with phosphate-buffered saline before snap freezing in liquid nitrogen. Cells were lysed by addition of lysis buffer (8 M urea, 50 mM NaCl, 50 mM 4-(2-hydroxyethyl)-1-piperazineethanesulfonic acid (EPPS) pH 8.5, and protease and phosphatase inhibitors) and homogenization by bead beating (BioSpec) for three repeats of 30 s at 2,400 rpm. Bradford assay was used to determine the final protein concentration in the clarified cell lysate. Then 50 µg of protein for each sample was reduced, alkylated and precipitated using methanol/chloroform as previously described, and the resulting washed precipitated protein was allowed to air dry. Precipitated protein was resuspended in 4 M urea, 50 mM HEPES pH 7.4, followed by dilution to 1 M urea with the addition of 200 mM EPPS, pH 8. Proteins were first digested with LysC (1:50; enzyme:protein) for 12 h at room temperature. The LysC digestion was diluted to 0.5 M urea with 200 mM EPPS pH 8 followed by digestion with trypsin (1:50; enzyme:protein) for 6 h at 37 °C. Sample digests were acidified with formic acid to a pH of 2–3 before desalting using C18 solid phase extraction plates (SOLA, Thermo Fisher Scientific). Desalted peptides were dried in a vacuum-centrifuged and reconstituted in 0.1% formic acid for liquid chromatography–mass spectrometry analysis.
(§2) Data were collected using a TimsTOF Pro2 (Bruker Daltonics) coupled to a nanoElute LC pump (Bruker Daltonics) via a CaptiveSpray nano-electrospray source. Peptides were separated on a reversed-phase C18 column (25 cm × 75 µm inner diameter, […], IonOpticks) containing an integrated captive spray emitter. Peptides were separated using a 50 min gradient of 2–30% buffer B (acetonitrile in 0.1% formic acid) with a flow rate of 250 nl min^−1 and column temperature maintained at 50 °C.
(§3) Data-dependent acquisition (DDA) was performed in Parallel Accumulation-Serial Fragmentation (PASEF) mode to determine effective ion mobility windows for downstream diaPASEF data collection. The ddaPASEF parameters included: 100% duty cycle using accumulation and ramp times of 50 ms each, one Trapped Ion Mobility Spectrometry(TIMS)-MS scan and ten PASEF ramps per acquisition cycle. The TIMS-MS survey scan was acquired between 100 m/z and 1,700 m/z and 1/K0 of 0.7–1.3 V s cm^−2. Precursors with one to five charges were selected, and those that reached an intensity threshold of 20,000 arbitrary units were actively excluded for 0.4 min. The quadrupole isolation width was set to 2 m/z for m/z < 700 and 3 m/z for m/z > 800, with the m/z between 700 m/z and 800 m/z being interpolated linearly. […] To perform diaPASEF, the precursor distribution in the DDA m/z-ion mobility plane was used to design an acquisition scheme for data-independent acquisition (DIA) data collection that included two windows in each 50 ms diaPASEF scan. Data were acquired using 16 of these 25 Da precursor double window scans (creating 32 windows) that covered the diagonal scan line for doubly and triply charged precursors, with singly charged precursors able to be excluded by their position in the m/z-ion mobility plane. These precursor isolation windows were defined between 400 m/z and 1,200 m/z and 1/K0 of 0.7–1.3 V s cm^−2.
(§4) DirectDIA mode includes first extracting the DIA data into a collection of MS2 spectra which are searched using Spectronaut’s Pulsar search engine. The search results are then used to generate a spectral library which is then employed for the targeted analysis of the DIA data. MS/MS spectra were searched against a Swissprot human database (January 2021). Database search criteria largely followed the default settings for directDIA including: tryptic with two missed cleavages, fixed carbomidomethylation of cysteine, and variable oxidation of methionine and acetylation of protein N-termini and precursor Q-value (FDR) cut-off of 0.01. […]

CDK12 = biological target: T3, CDK12 (Homo sapiens, UniProt Q16531+Q9NYV4); test: Label-free quantitative mass spectrometry in MDA-MB-231 cells, CDK12; format: cell-based; details: for CDK12 peptide count: label-free quantitative MS, replicate values; for CDK12 peptide count (DMSO-normalised): normalised to DMSO = 1, replicate values
T3 construct: endogenous in cells; host or cells: MDA-MB-231
Protocol: as §1, §2, §3, §4

[1] = Supplementary Table 2, read-out: Lanthascreen IC50 [nM] CDK9
[2] = individual replicates, sheet EDF7
[3] = label-free quantitative MS, replicate values

- TR-FRET signal (CDK12–cyclin K and DDB1; 10 nM CDK12-cyclin K, compound 0.468 nM): 0.1037
- TR-FRET signal (CDK12–cyclin K and DDB1; 10 nM CDK12-cyclin K, compound 2.16 nM): 0.135
- TR-FRET signal (CDK12–cyclin K and DDB1; 10 nM CDK12-cyclin K, compound 3.6 nM): 0.1982
- TR-FRET signal (CDK12–cyclin K and DDB1; 10 nM CDK12-cyclin K, compound 7.92 nM): 0.284
- TR-FRET signal (CDK12–cyclin K and DDB1; 10 nM CDK12-cyclin K, compound 15.84 nM): 0.3713
- TR-FRET signal (CDK12–cyclin K and DDB1; 10 nM CDK12-cyclin K, compound 30.96 nM): 0.4536
- TR-FRET signal (CDK12–cyclin K and DDB1; 10 nM CDK12-cyclin K, compound 62.6399 nM): 0.4778
- TR-FRET signal (CDK12–cyclin K and DDB1; 10 nM CDK12-cyclin K, compound 125.279 nM): 0.4982
- TR-FRET signal (CDK12–cyclin K and DDB1; 10 nM CDK12-cyclin K, compound 244.8 nM): 0.5242
- TR-FRET signal (CDK12–cyclin K and DDB1; 10 nM CDK12-cyclin K, compound 993.6 nM): 0.5359
- TR-FRET signal (CDK12–cyclin K and DDB1; 10 nM CDK12-cyclin K, compound 2001.6 nM): 0.5508
- TR-FRET signal (CDK12–cyclin K and DDB1; 50 nM CDK12-cyclin K, compound 0.468 nM): 0.2224
- TR-FRET signal (CDK12–cyclin K and DDB1; 50 nM CDK12-cyclin K, compound 2.16 nM): 0.2548
- TR-FRET signal (CDK12–cyclin K and DDB1; 50 nM CDK12-cyclin K, compound 3.6 nM): 0.3253
- TR-FRET signal (CDK12–cyclin K and DDB1; 50 nM CDK12-cyclin K, compound 7.92 nM): 0.4723
- TR-FRET signal (CDK12–cyclin K and DDB1; 50 nM CDK12-cyclin K, compound 15.84 nM): 0.7533
- TR-FRET signal (CDK12–cyclin K and DDB1; 50 nM CDK12-cyclin K, compound 30.96 nM): 1.3518
- TR-FRET signal (CDK12–cyclin K and DDB1; 50 nM CDK12-cyclin K, compound 62.6399 nM): 2.31
- TR-FRET signal (CDK12–cyclin K and DDB1; 50 nM CDK12-cyclin K, compound 125.279 nM): 2.851
- TR-FRET signal (CDK12–cyclin K and DDB1; 50 nM CDK12-cyclin K, compound 244.8 nM): 2.999
- TR-FRET signal (CDK12–cyclin K and DDB1; 50 nM CDK12-cyclin K, compound 993.6 nM): 3.086
- TR-FRET signal (CDK12–cyclin K and DDB1; 50 nM CDK12-cyclin K, compound 2001.6 nM): 3.013
- IC50 (CDK9–cyclin T; [1]): 44 nM
- CDK12 peptide count (CDK12): 540.299 and 612.59
- CDK12 peptide count (DMSO-normalised) (CDK12): 0.6003 and 0.6327
SMILES: CCC(CO)Nc1nc(NCc2ccc(-c3ccccn3)cc2)c2ncn(C(C)C)c2n1 (stereo not drawn) [CR8, reference compound]
- cyclin K abundance (label-free MS) (cyclin K; [2]): 122.337 and 71.6906
- cyclin K abundance (label-free MS) (cyclin K; [3]): 122.337 and 71.6906
- CCNK peptide count (DMSO-normalised) (cyclin K): 0.06684 and 0.03988
- average CCNK peptide count (cyclin K; sheet EDF7): 97.0136

- IC50 (CDK9–cyclin T; Lanthascreen, read-out: CDK9 inhibition): > 10000 nM
- IC50 (CDK9–cyclin T; [1]): > 10000 nM
- Lanthascreen TR-FRET signal (raw ratio), sheet CDK9 (CDK9–cyclin T; compound 0.038147 nM, second titration set (r13)): 0.01409 and 0.01416
- Lanthascreen TR-FRET signal (raw ratio), sheet CDK9 (CDK9–cyclin T; compound 0.152588 nM, second titration set (r13)): 0.01468 and 0.01413
- Lanthascreen TR-FRET signal (raw ratio), sheet CDK9 (CDK9–cyclin T; compound 0.610352 nM, second titration set (r13)): 0.01464 and 0.01471
- Lanthascreen TR-FRET signal (raw ratio), sheet CDK9 (CDK9–cyclin T; compound 1.02544 nM, first titration set (r1)): 0.013 and 0.01376
- Lanthascreen TR-FRET signal (raw ratio), sheet CDK9 (CDK9–cyclin T; compound 3.15521 nM, first titration set (r1)): 0.01501 and 0.01445
- Lanthascreen TR-FRET signal (raw ratio), sheet CDK9 (CDK9–cyclin T; compound 9.46563 nM, first titration set (r1)): 0.01436 and 0.01453
- Lanthascreen TR-FRET signal (raw ratio), sheet CDK9 (CDK9–cyclin T; compound 9.76563 nM, second titration set (r13)): 0.01408 and 0.01448
- Lanthascreen TR-FRET signal (raw ratio), sheet CDK9 (CDK9–cyclin T; compound 31.5521 nM, first titration set (r1)): 0.01309 and 0.01275
- Lanthascreen TR-FRET signal (raw ratio), sheet CDK9 (CDK9–cyclin T; compound 39.0625 nM, second titration set (r13)): 0.01393 and 0.01389
- Lanthascreen TR-FRET signal (raw ratio), sheet CDK9 (CDK9–cyclin T; compound 99.3891 nM, first titration set (r1)): 0.01397 and 0.01502
- Lanthascreen TR-FRET signal (raw ratio), sheet CDK9 (CDK9–cyclin T; compound 156.25 nM, second titration set (r13)): 0.01402 and 0.0137
- Lanthascreen TR-FRET signal (raw ratio), sheet CDK9 (CDK9–cyclin T; compound 315.521 nM, first titration set (r1)): 0.01247 and 0.01162
- Lanthascreen TR-FRET signal (raw ratio), sheet CDK9 (CDK9–cyclin T; compound 625 nM, second titration set (r13)): 0.01303 and 0.01336
- Lanthascreen TR-FRET signal (raw ratio), sheet CDK9 (CDK9–cyclin T; compound 2500 nM, second titration set (r13)): 0.01244 and 0.01203
- Lanthascreen TR-FRET signal (raw ratio), sheet CDK9 (CDK9–cyclin T; compound 3155.21 nM, first titration set (r1)): 0.007103 and 0.007563
- Lanthascreen TR-FRET signal (raw ratio), sheet CDK9 (CDK9–cyclin T; compound 10000 nM, second titration set (r13)): 0.01094 and 0.01086
- Lanthascreen TR-FRET signal (raw ratio), sheet CDK9 (CDK9–cyclin T; compound 10002 nM, first titration set (r1)): 0.01268 and 0.01049
- CDK12 peptide count (CDK12): 703.981 and 744.171
- CDK12 peptide count (DMSO-normalised) (CDK12): 0.7821 and 0.7686
SMILES: Cc1cccc(Nc2nc(CC(=O)Nc3ncc(C)s3)cs2)n1 [HQ461]
- cyclin K abundance (label-free MS) (cyclin K; [2]): 622.336 and 691.814
- cyclin K abundance (label-free MS) (cyclin K; [3]): 622.336 and 691.814
- CCNK peptide count (DMSO-normalised) (cyclin K): 0.34 and 0.3848
- average CCNK peptide count (cyclin K; sheet EDF7): 657.075

- IC50 (CDK9–cyclin T; [1]): 3660 nM
- CDK12 peptide count (CDK12): 613.534 and 654.471
- CDK12 peptide count (DMSO-normalised) (CDK12): 0.6817 and 0.676
SMILES: Cn1cc(-n2cnc3c(NCc4nc5cc(Cl)c(Cl)cc5[nH]4)nc(N4CCOCC4)nc32)cn1 [SR-4835]
- cyclin K depletion, result in words (cyclin K): more effective at depleting cyclin K than CR8
- cyclin K abundance (label-free MS) (cyclin K; [2]): 69.2958 and 61.7731
- cyclin K abundance (label-free MS) (cyclin K; [3]): 69.2958 and 61.7731
- CCNK peptide count (DMSO-normalised) (cyclin K): 0.03786 and 0.03436
- average CCNK peptide count (cyclin K; sheet EDF7): 65.5345

SMILES: CC(C)c1nn(-c2c(Cl)cccc2Cl)c2nc(Cc3ccc(OCCO)cc3)[nH]c(=O)c12 [compound 21195]
- cyclin K depletion, result in words (cyclin K): more effective at depleting cyclin K than CR8
- CCNK peptide count (cyclin K; [2]): 55.265 and 55.9786
- CCNK peptide count (cyclin K; [3]): 55.265 and 55.9786
- CCNK peptide count (DMSO-normalised) (cyclin K): 0.03019 and 0.03114
- average CCNK peptide count (cyclin K; sheet EDF7): 55.6218
- CDK12 peptide count (CDK12): 493.905 and 565.93
- CDK12 peptide count (DMSO-normalised) (CDK12): 0.5487 and 0.5845
